Laboratory results: patent US6706663B2, “Herbicidal 3-heterocyclic substituted benzisothiazole and benzisoxazole compounds” (Wyeth, priority 2000, dated 2004)

Experiments:
[1] = test system: ECHCG (Echinochloa crus-galli); assay: Postemergence herbicidal evaluation; assay type: in vivo, (L.) Beau; details: postemergence
Summary of the method: (§1)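 Seedlings grown about two weeks in flats, sprayed, then kept under standard greenhouse care. Rated visually 4–5 weeks after treatment on a 0–9 scale (stand, vigour, malformation, size, chlorosis, overall appearance) relative to untreated control; repeat tests averaged.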

[2] = test system: TRZAWR (Wheat, Winter, cv Riband); assay: Preemergence herbicidal evaluation; assay type: in vivo, Triticum aestivum; details: rated 4-5 weeks after treatment
Summary of the method: (§2)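 Applied before emergence as an aqueous acetone spray over seeded soil. Read-out: 0–9 visual rating covering plant stand, vigor, size, chlorosis, malformation and overall appearance compared with control, taken 4–5 weeks after spraying.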

[3] = test system: ZEAMX (Corn, Field); assay: Postemergence herbicidal evaluation; assay type: in vivo, Zea mays, L.; details: postemergence
Summary of the method: as §1

[4] = test system: CASOB (Cassia obtusifolia); assay: Postemergence herbicidal evaluation; assay type: in vivo, L.; details: postemergence
Summary of the method: as §1

[5] = test system: AMBEL (Ambrosia artemisifolia); assay: Postemergence herbicidal evaluation; assay type: in vivo, L.; details: postemergence
Summary of the method: as §1

[6] = test system: CHEAL (Chenopodium album); assay: Postemergence herbicidal evaluation; assay type: in vivo, L.; details: postemergence
Summary of the method: as §1

[7] = test system: ORYSAT (Rice, Tebonnet); assay: Flooded paddy, post-transplant rice tolerance; assay type: in vivo, Oryza sativa, (L.) Tebonnet; details: flooded paddy, post-transplant rice, rated 3-4 weeks after treatment, 0-9 rating scale
Summary of the method: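 Seedlings aged ten days are transplanted in pairs into undrained pots of silt loam, which are then flooded to a depth of 1.5 to 3 cm. After herbicide application the pots are kept in a greenhouse with the flood maintained. Plants are rated 0-9 by visual comparison with controls.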

[8] = test system: ABUTH (Abutilon theophrasti); assay: Preemergence herbicidal evaluation; assay type: in vivo, Medic.; details: rated 4-5 weeks after treatment
[9] = test system: SAGPY (Sagittaria pygmaea); assay: Flooded paddy, preemergence weed control; assay type: in vivo, L.; details: rated 3-4 weeks after treatment, 0-9 rating scale
Summary of the method: (§3)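 Plants were established from seed or propagating organs in flooded silt loam, with the water surface held 1.5 to 3 cm above the soil for the entire experiment. Injury was assessed visually against a control and given a 0-9 score.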

[10] = test system: ORYSAT (Rice, Tebonnet); assay: Postemergence herbicidal evaluation; assay type: in vivo, Oryza sativa, (L.) Tebonnet; details: postemergence
Summary of the method: as §1

[11] = test system: CASOB (Cassia obtusifolia); assay: Preemergence herbicidal evaluation; assay type: in vivo, L.; details: rated 4-5 weeks after treatment
Summary of the method: as §2

[12] = test system: AMBEL (Ambrosia artemisifolia); assay: Preemergence herbicidal evaluation; assay type: in vivo, L.; details: rated 4-5 weeks after treatment
Summary of the method: as §2

[13] = test system: CHEAL (Chenopodium album); assay: Preemergence herbicidal evaluation; assay type: in vivo, L.; details: rated 4-5 weeks after treatment
Summary of the method: as §2

[14] = test system: ORYSAT (Rice, Tebonnet); assay: Preemergence herbicidal evaluation; assay type: in vivo, Oryza sativa, (L.) Tebonnet; details: rated 4-5 weeks after treatment
[15] = test system: ECHORC (Echinochloa oryzoides); assay: Flooded paddy, preemergence weed control; assay type: in vivo, Echinochloa oryzoides (Ard.) Fritsch.; details: rated 3-4 weeks after treatment, 0-9 rating scale
Summary of the method: as §3

[16] = test system: ABUTH (Abutilon theophrasti); assay: Postemergence herbicidal evaluation; assay type: in vivo, Medic.; details: postemergence
Summary of the method: as §1

[17] = test system: TRZAWR (Wheat, Winter, cv Riband); assay: Postemergence herbicidal evaluation; assay type: in vivo, Triticum aestivum; details: postemergence
Summary of the method: as §1

[18] = test system: IPOHE (Ipomoea hederacea); assay: Postemergence herbicidal evaluation; assay type: in vivo, (L.) Jacq.; details: postemergence
Summary of the method: as §1

SMILES: Cn1c(C(F)(F)F)cc(=O)n(-c2ccc3snc(C4OC(=O)C(C)(C)O4)c3c2)c1=O (stereo not drawn) [Compound 71, 3-[3-(4,4-dimethyl-5-oxo-1,3-dioxolan-2-yl)-1,2-benzisothiazol-5-yl]-1-methyl-6-(trifluoromethyl)uracil]
- ECHCG herbicidal rating ([1]; rate 0.0320 kg/ha): 1.0
- ECHCG herbicidal rating ([1]; rate 0.0620 kg/ha): 3.0
- Preemergence herbicidal rating TRZAWR ([2]; Rate 0.0620 kg/ha): 4.0
- Preemergence herbicidal rating TRZAWR ([2]; Rate 0.1250 kg/ha): 7.0
- Preemergence herbicidal rating TRZAWR ([2]; Rate 0.2500 kg/ha): 8.0
- ZEAMX herbicidal rating ([3]; rate 0.0320 kg/ha): 4.5
- ZEAMX herbicidal rating ([3]; rate 0.0620 kg/ha): 5.0
- CASOB herbicidal rating ([4]; rate 0.0320 kg/ha): 0.0
- CASOB herbicidal rating ([4]; rate 0.0620 kg/ha): 2.0
- AMBEL herbicidal rating ([5]; rate 0.0320 kg/ha): 7.0
- AMBEL herbicidal rating ([5]; rate 0.0620 kg/ha): 6.0
- CHEAL herbicidal rating ([6]; rate 0.0320 kg/ha): 6.0
- CHEAL herbicidal rating ([6]; rate 0.0620 kg/ha): 9.0
- herbicidal rating, ORYSAT (rice tolerance) ([7]; rate 0.0080 kg/ha): 0.0
- herbicidal rating, ORYSAT (rice tolerance) ([7]; rate 0.0320 kg/ha): 0.0
- herbicidal rating, ORYSAT (rice tolerance) ([7]; rate 0.1250 kg/ha): 0.0
- Preemergence herbicidal rating ABUTH ([8]; Rate 0.0620 kg/ha): 8.0
- Preemergence herbicidal rating ABUTH ([8]; Rate 0.1250 kg/ha): 9.0
- Preemergence herbicidal rating ABUTH ([8]; Rate 0.2500 kg/ha): 9.0
- herbicidal rating, SAGPY ([9]; rate 0.0080 kg/ha): 0.0
- herbicidal rating, SAGPY ([9]; rate 0.0320 kg/ha): 0.0
- herbicidal rating, SAGPY ([9]; rate 0.1250 kg/ha): 0.0
- ORYSAT herbicidal rating ([10]; rate 0.0320 kg/ha): 3.0
- ORYSAT herbicidal rating ([10]; rate 0.0620 kg/ha): 4.5
- Preemergence herbicidal rating CASOB ([11]; Rate 0.0620 kg/ha): 3.5
- Preemergence herbicidal rating CASOB ([11]; Rate 0.1250 kg/ha): 6.5
- Preemergence herbicidal rating CASOB ([11]; Rate 0.2500 kg/ha): 7.5
- Preemergence herbicidal rating AMBEL ([12]; Rate 0.0620 kg/ha): 8.0
- Preemergence herbicidal rating AMBEL ([12]; Rate 0.1250 kg/ha): 9.0
- Preemergence herbicidal rating AMBEL ([12]; Rate 0.2500 kg/ha): 9.0
- Preemergence herbicidal rating CHEAL ([13]; Rate 0.0620 kg/ha): 9.0
- Preemergence herbicidal rating CHEAL ([13]; Rate 0.1250 kg/ha): 9.0
- Preemergence herbicidal rating CHEAL ([13]; Rate 0.2500 kg/ha): 9.0
- Preemergence herbicidal rating ORYSAT ([14]; Rate 0.0620 kg/ha): 5.5
- Preemergence herbicidal rating ORYSAT ([14]; Rate 0.1250 kg/ha): 8.0
- Preemergence herbicidal rating ORYSAT ([14]; Rate 0.2500 kg/ha): 8.5
- herbicidal rating, ECHORC ([15]; rate 0.0080 kg/ha): 0.0
- herbicidal rating, ECHORC ([15]; rate 0.0320 kg/ha): 0.0
- herbicidal rating, ECHORC ([15]; rate 0.1250 kg/ha): 0.0
- ABUTH herbicidal rating ([16]; rate 0.0320 kg/ha): 9.0
- ABUTH herbicidal rating ([16]; rate 0.0620 kg/ha): 9.0
- TRZAWR herbicidal rating ([17]; rate 0.0320 kg/ha): 3.0
- TRZAWR herbicidal rating ([17]; rate 0.0620 kg/ha): 3.5
- IPOHE herbicidal rating ([18]; rate 0.0320 kg/ha): 9.0
- IPOHE herbicidal rating ([18]; rate 0.0620 kg/ha): 9.0
